Values quoted from earlier work as cited in PubChem BioAssay AID1259409 (Chemical Carcinogenesis Research Information System (CCRIS), 2018).
Values joined by “and” are separate entries in the source; they are usually repeats but may differ in a detail not shown here. Equal entries are not always repeated.

System: rodent chemically induced tumor inhibition, incidence and multiplicity
Assay: CCRIS tumor inhibitor studies
Conditions: Route [Inhibitor]: ORAL, Species: RAT

Question: Which “tumour outcome (control, treated, inhibition, significance)” value (Carcinogen: N-METHYL-N'-NITROSOUREA, 684-93-5, Dose [Inhibitor]: 0, 782 MG/KG IN DIET FOR DURATION OF STUDY BEGINNING 60 D PRIOR TO CARCINOGEN DOSE (STUDY DURATION: 240 D), Strain/Sex: SPRAGUE-DAWLEY/FEMALE, Target Tissue: Type of Lesion: MAMMARY GLAND: TUMOR, Dose [Carcinogen]: 50 MG/KG BW ONCE, Promoter: NONE USED) does the source give for `CC1=C(/C=C/C(C)=C/C=C/C(C)=C/C(=O)Nc2ccc(O)cc2)C(C)(C)CCC1` here?
Answer: The value was 80%, 28%, 65%, p<0.oo5 and 68%, 42%, 38%, p<0.005.

Question: What about the “tumour outcome (control, treated, inhibition, significance)” value (Carcinogen: N-METHYL-N-NITROSOUREA [684-93-5], Dose [Inhibitor]: 2 MMOL/KG IN DIET FOR 6 WK BEGINNING 4 WK POST LAST CARCINOGEN DOSE (STUDY DURATION: 11 WK), Strain/Sex: SPRAGUE-DAWLEY/FEMALE, Target Tissue: Type of Lesion: MAMMARY GLAND: CARCINOMA, Dose [Carcinogen]: 50 MG/KG BW IP 1X/WK FOR 2 WK (STUDY DURATION: 11 WK), Promoter: NONE) of the same compound?
Answer: The value was 95.4%, 87.5%, 8.3%.

Question: What about the “tumour outcome (control, treated, inhibition, significance)” value (Carcinogen: N-METHYL-N-NITROSOUREA [684-93-5], Dose [Inhibitor]: 2 MMOL/KG IN DIET FOR 10 WK BEGINNING 2 D POST LAST CARCINOGEN DOSE (STUDY DURATION: 11 WK), Strain/Sex: SPRAGUE-DAWLEY/FEMALE, Target Tissue: Type of Lesion: MAMMARY GLAND: CARCINOMA, Dose [Carcinogen]: 50 MG/KG BW IP 1X/WK FOR 2 WK (STUDY DURATION: 11 WK), Promoter: NONE) of the same compound?
Answer: The value was 95.4%, 45.0%, 53%, p<0.05.

Question: And the “tumour outcome (control, treated, inhibition, significance)” value (Carcinogen: N-METHYL-N-NITROSOUREA [684-93-5], Dose [Inhibitor]: 196 MG/KG DIET BEGINNING 7 D PRIOR TO CARCINOGEN DOSE (STUDY DURATION: 187 D), Strain/Sex: SPRAGUE-DAWLEY/FEMALE, Target Tissue: Type of Lesion: MAMMARY GLAND: ADENOCARCINOMA, Dose [Carcinogen]: 50 MG/KG BW ONCE AT 100 D OF AGE)?
Answer: The value was 23/40 (57%), 17/40 (43%), 24.6%,p<0.01.

Question: And the “tumour outcome (control, treated, inhibition, significance)” value (Carcinogen: N-METHYL-N-NITROSOUREA [684-93-5], Dose [Inhibitor]: 586 MG/KG DIET BEGINNING 3 D POST-CARCINOGEN DOSE (STUDY DURATION: 150 D), Strain/Sex: SPRAGUE-DAWLEY/FEMALE, Target Tissue: Type of Lesion: MAMMARY GLAND: ADENOCARCINOMA, Dose [Carcinogen]: 50 MG/KG BW ONCE AT 50 D OF AGE)?
Answer: Its value is 25/25 (100%), 24/25 (96%), 4%, not significant.

Question: What about the “tumour outcome (control, treated, inhibition, significance)” value (Carcinogen: N-METHYL-N-NITROSOUREA, 684-93-5, Dose [Inhibitor]: 0, 1 MMOL/KG IN DIET FOR 7 MO BEGINNING 7 MO POST CARCINOGEN DOSE (STUDY DURATION: 14 MO), Strain/Sex: LOBUND WISTAR/MALE, Target Tissue: Type of Lesion: PROSTATE: ADENOCARCINOMA, Dose [Carcinogen]: 30 MG/KG BW ONCE, Promoter: TESTOSTERONE PROPIONATE, 57-85-2) of the same compound?
Answer: The value was 16/18 (89%), 4/19 (21%), 76%, p<0.001.

Question: And the “tumour outcome (control, treated, inhibition, significance)” value (Carcinogen: N-METHYL-N-NITROSOUREA, 684-93-5, Dose [Inhibitor]: 0, 328 MG/KG OF DIET FOR DURATION OF STUDY BEGINNING 1 WK PRIOR TO CARCINOGEN TREATMENT (STUDY DURATION: 117 D), Strain/Sex: SPRAGUE-DAWLEY/FEMALE, Target Tissue: Type of Lesion: MAMMARY GLAND: ADENOCARCINOMA, Dose [Carcinogen]: 50 MG/KG BW ONCE, Promoter: NONE USED)?
Answer: The value was 100%, 84%, 16%, not significant.

Question: And the “tumour outcome (control, treated, inhibition, significance)” value (Carcinogen: N-METHYL-N-NITROSOUREA, 684-93-5, Dose [Inhibitor]: 0, 391 MG/KG DIET BEGINNING AFTER THE SURGICAL REMOVAL OF THE FIRST PALPABLE TUMOR (STUDY DURATION: LIFETIME), Strain/Sex: SPRAGUE-DAWLEY/FEMALE, Target Tissue: Type of Lesion: MAMMARY GLAND: TUMOR, Dose [Carcinogen]: 35 MG/KG ONCE AT 50 DAYS OF AGE, Promoter: NONE USED)?
Answer: Its value is 93%, 95%, -2%, not calculated.

Question: What about the “tumour outcome (control, treated, inhibition, significance)” value (Carcinogen: N-METHYL-N-NITROSOUREA, 684-93-5, Dose [Inhibitor]: 0, 782 MG/KG DIET BEGINNING AFTER THE SURGICAL REMOVAL OF THE FIRST PALPABLE TUMOR (STUDY DURATION: LIFETIME), Strain/Sex: SPRAGUE-DAWLEY/FEMALE, Target Tissue: Type of Lesion: MAMMARY GLAND: TUMOR, Dose [Carcinogen]: 35 MG/KG ONCE AT 50 DAYS OF AGE, Promoter: NONE USED) of the same compound?
Answer: Its value is 93%, 89%, 4%, not calculated.

Question: And the “tumour outcome (control, treated, inhibition, significance)” value (Carcinogen: N-METHYL-N-NITROSOUREA, 684-93-5, Dose [Inhibitor]: 0, 782 MG/KG DIET REDUCED TO 391 MG/KG DIET 2 WK POST CARCINOGEN DOSE (STUDY DURATION: 450 D), Strain/Sex: WISTAR-UNILEVER/MALE, Target Tissue: Type of Lesion: PROSTATE/SEMINAL VESICLE: ADENOCARCINOMA, Dose [Carcinogen]: 50 MG/KG BW ONCE, Promoter: TESTOSTERONE PROPIONATE, 57-85-2)?
Answer: The value was 67%, 62%, 7%, not significant.

Question: And the “tumour outcome (control, treated, inhibition, significance)” value (Carcinogen: N-METHYL-N-NITROSOUREA, 684-93-5, Dose [Inhibitor]: 0, 782 MG/KG OF CASEIN-BASED AIN-76A DIET FOR DURATION OF STUDY BEGINNING 7 D POST CARCINOGEN DOSE (STUDY DURATION: 25 W, Strain/Sex: F344/FEMALE, Target Tissue: Type of Lesion: MAMMARY GLAND: TUMOR, Dose [Carcinogen]: 45 MG/KG BW ONCE AT 5O D OF AGE, Promoter: NONE USED)?
Answer: The value was 18/25 (72%), 20/25 (80%), -11%, not significant.

Question: What about the “tumour outcome (control, treated, inhibition, significance)” value (Carcinogen: N-METHYL-N-NITROSOUREA, 684-93-5, Dose [Inhibitor]: 0, 782 MG/KG OF DIET FOR DURATION OF STUDY BEGINNING 1 WK PRIOR TO CARCINOGEN TREATMENT (STUDY DURATION: 117 D), Strain/Sex: SPRAGUE-DAWLEY/FEMALE, Target Tissue: Type of Lesion: MAMMARY GLAND: ADENOCARCINOMA, Dose [Carcinogen]: 50 MG/KG BW ONCE, Promoter: NONE USED) of the same compound?
Answer: Its value is 100%, 42%, 58%, not calculated.

Question: And the “tumour outcome (control, treated, inhibition, significance)” value (Carcinogen: N-METHYL-N-NITROSOUREA, 684-93-5, Dose [Inhibitor]: 0, 782 MG/KG OF GRAIN-BASED NIH-07 DIET FOR DURATION OF STUDY BEGINNING 7 D PRIOR TO CARCINOGEN DOSE (STUDY DURATION: 26, Strain/Sex: F344/FEMALE, Target Tissue: Type of Lesion: MAMMARY GLAND: TUMOR, Dose [Carcinogen]: 45 MG/KG BW ONCE AT 50 D OF AGE, Promoter: NONE USED)?
Answer: The value was 13/25 (52%), 7/25 (28%), 46%, not significant.
